# In patent publication US10906888B2, “Pyrimidine carboxamides as inhibitors of Vanin-1 enzyme” (Pfizer Inc., priority 2016, dated 2021):
# Biological target: human vanin-1 (Homo sapiens (Human), UniProt O95497)
# Experiment: Human Vanin-1 Enzyme Assay 1
# Assay type: biochemical
# Settings: 25 pM human vanin-1, 50 uM pantetheine 7-amino-4-trifluoromethylcoumarin substrate
# Method: Human Vanin-1Enzyme Assay 1.
# The in vitro assay measures enzymatic cleavage of the fluorescently-labeled vanin substrate, pantetheine 7-amino-4-trifluoromethylcoumarin, by human vanin-1.
# The vanin-1 protein was prepared in-house from a construct expressing the extracellular domain of human vanin-1 (GenBank ID NM_004666) preceded N-terminally by the honey bee melittin signal peptide, a GSG linker sequence, a His6× tag and a FLAG tag. The secreted, soluble enzyme was purified from the conditioned medium from a CHO cell line stably expressing the resulting protein. Enzyme purification was performed through sequential Ni NTA and size-exclusion chromatography steps.
# Intermediate concentrations were prepared by diluting in DMSO in a four-fold series for a total of 11 data points.
# To begin the assay 100 nL was transferred from the compound plate to the assay plate. Next, 15 μL of the vanin-1 working solution were transferred to the assay plate. The inhibitor and enzyme were incubated at room temperature for 30 minutes. The enzyme reaction was then initiated by the addition of 5 μL of 200 μM pantetheine 7-amino-4-trifluoromethylcoumarin prepared in assay buffer. […] The final concentration of DMSO was 0.5%.
# Chain of human vanin-1 (O95497 22-491): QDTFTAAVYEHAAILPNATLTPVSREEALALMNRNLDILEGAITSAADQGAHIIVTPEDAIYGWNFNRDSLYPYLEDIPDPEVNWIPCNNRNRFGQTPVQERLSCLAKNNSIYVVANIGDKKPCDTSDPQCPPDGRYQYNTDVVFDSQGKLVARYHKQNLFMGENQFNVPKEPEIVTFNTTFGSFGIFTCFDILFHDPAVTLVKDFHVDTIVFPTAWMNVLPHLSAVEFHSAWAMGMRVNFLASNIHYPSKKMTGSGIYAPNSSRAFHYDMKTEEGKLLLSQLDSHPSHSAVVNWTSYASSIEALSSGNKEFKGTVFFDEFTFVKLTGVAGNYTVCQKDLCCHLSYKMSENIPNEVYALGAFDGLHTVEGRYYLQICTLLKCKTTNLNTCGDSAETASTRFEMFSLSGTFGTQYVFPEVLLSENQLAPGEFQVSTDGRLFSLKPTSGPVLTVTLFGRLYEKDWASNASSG
row,IC50,Compound
1,14.3 nM,"CCC1(CO)CCN(C(=O)c2cnc(NC3(c4cncnc4)CC3)nc2)C1 (single isomer, unassigned) [Example 202]"
2,0.551 nM,O=C(c1cnc(NC2(c3ccccn3)CC2)nc1)N1CCC2(CCOCC2)C1 [Example 177]
3,5.22 nM,"N#CC1CCCN(C(=O)c2cnc(NC3(c4cncnc4)CC3)nc2)C1 (single isomer, unassigned) [Example 197]"
4,35.1 nM,O=C(c1cnc(NC2(c3cncnc3)CC2)nc1)N1CCCOCC1 [Example 42]
5,8.06 nM,Cc1ccc(C(C)Nc2ncc(C(=O)N3CCC4(CCOCC4)C3)cn2)nc1 (stereo not shown) [Example 161]
6,54.5 nM,C[C@@H](Nc1ncc(C(=O)N2CC3(CCOCC3)C2)cn1)c1cnccn1 [Example 148]
7,8.13 nM,O=C(c1cnc(NC2(c3cncnc3)CC2)nc1)N1CCC(F)CC1 [Example 68]
8,91.3 nM,C[C@@H](Nc1ncc(C(=O)N2CC3(CCOCC3)C2)cn1)c1cncnc1 [Example 152]
9,26.9 nM,CC(C)[C@H]1C[C@@H](O)CN(C(=O)c2cnc(NC3(c4cncnc4)CC3)nc2)C1 [Example 40]
10,0.504 nM,O=C(c1cnc(NC2(c3cncnc3)COC2)nc1)N1CC2(CCOCC2)C1 [Example 134]
11,60.3 nM,O=C(c1cnc(NC2(c3cncnc3)CC2)nc1)N1CCOC2(CCCC2)C1 [Example 52]
12,1370 nM,CN1CC2(CCN(C(=O)c3cnc(NCc4cnccn4)nc3)C2)C1 [Example 119]
13,1230 nM,CC1(O)CCCN(C(=O)c2cnc(NCc3cccnc3)nc2)C1 (stereo not shown) [Example 26]
14,28.7 nM,O=C(c1cnc(NC2(c3cncnc3)CC2)nc1)N1C[C@H](O)C[C@H](C2CC2)C1 [Example 88]
15,8.58 nM,CCC1(CO)CCN(C(=O)c2cnc(NCc3cccnc3)nc2)C1 (stereo not shown) [Example 4]
16,1600 nM,CC(C)(O)C1CCN(C(=O)c2cnc(NC3(c4cncnc4)CC3)nc2)CC1 [Example 78]
17,838 nM,C[C@@H](Nc1ncc(C(=O)N2CCC3(CCOCC3)C2)cn1)c1ccncn1 [Example 156]
18,148 nM,CC(C)[C@H]1C[C@H](O)CN(C(=O)c2cnc(NC3(c4cncnc4)CC3)nc2)C1 [Example 72]
19,20000 nM,O=C(c1cnc(NC2(c3cncnc3)CC2)nc1)N1C[C@@H](F)C[C@@H]1CO [Example 48]
20,57.7 nM,O=C(c1cnc(NCc2cncnc2C(F)(F)F)nc1)N1CC2(CCOCC2)C1 [Example 167]
21,4240 nM,C[C@@H]1CN(C(=O)c2cnc(NC3(c4cncnc4)CC3)nc2)C[C@H](C)O1 [Example 67]
22,97.5 nM,CO[C@H]1CCN(C(=O)c2cnc(NC3(c4cncnc4)CC3)nc2)C1 [Example 51]
23,171 nM,O=C(c1cnc(NCc2cnccn2)nc1)N1CCN2C[C@@H](F)C[C@H]2C1 [Example 110]
24,45 nM,O=C(c1cnc(NC2(c3cncnc3)CC2)nc1)N1CCN2CCCCCC2C1 (stereo not shown) [Example 41]
25,1.33 nM,O=C(c1cnc(NCc2cccnc2)nc1)N1CC2(CCOCC2)C1 [Example 2]

row,IC50,Compound
1,7.71 nM,O=C(c1cnc(NCc2cncnc2)nc1)N1CCC2(CCOCC2)C1 [Example 185]
2,0.867 nM,O=C(c1cnc(NC2(c3cncnc3)CC2)nc1)N1CC2(CCOCC2)C1 [Example 189]
3,2520 nM,C[C@H]1COCCN1C(=O)c1cnc(NC2(c3cncnc3)CC2)nc1 [Example 55]
4,65.9 nM,O=C(c1cnc(NCc2cnccn2)nc1)N1CCN2CCC[C@H]2C1 [Example 129]
5,9.44 nM,CC1CCCN(C(=O)c2cnc(NC3(c4cncnc4)CC3)nc2)C1 (stereo not shown) [Example 39]
6,113 nM,O=C(c1cnc(NCc2cnccn2)nc1)N1CCN2CC(F)(F)C[C@H]2C1 [Example 116]
7,1040 nM,O=C(c1cnc(NCc2cccnc2)nc1)N1CCC(O)C1 (stereo not shown) [Example 25]
8,231 nM,O=C(c1cnc(NC2(c3cncnc3)CC2)nc1)N1CCC[C@H]1CO [Example 66]
9,1.69 nM,O=C(c1cnc(NCc2cccnc2)nc1)N1C[C@H]2CCC[C@@H](O)[C@H]2C1 (relative stereo) [Example 3]
10,6.29 nM,CCC1(C)CCN(C(=O)c2cnc(NC3(c4cncnc4)CC3)nc2)CC1 [Example 46]
11,2330 nM,Cc1nc(NC2(c3cncnc3)CC2)ncc1C(=O)N1CCC2(CCOCC2)C1 [Example 136]
12,1.31 nM,O=C(c1cnc(NCc2cccnc2)nc1)N1CCC2(CCOCC2)C1 [Example 1]
13,31.3 nM,O=C(c1cnc(NC2(c3cncnc3)CC2)nc1)N1CCC[C@@]2(CCCC[C@@H]2O)C1 [Example 77]
14,27.3 nM,Cc1cnc(CNc2ncc(C(=O)N3CCC4(CCOCC4)C3)cn2)cn1 [Example 164]
15,323 nM,O=C(c1cnc(NCc2cccnc2)nc1)N1CC(O)C1 [Example 16]
16,384 nM,O=C(c1cnc(NCc2cnccn2)nc1)N1CCN2CCC[C@@H]2C1 [Example 128]
17,316 nM,COC1CCOC2(CCN(C(=O)c3cnc(NC4(c5cncnc5)CC4)nc3)CC2)C1 (stereo not shown) [Example 91]
18,192 nM,O=C(c1cnc(NCc2cnc(C(F)(F)F)nc2)nc1)N1CCC2(CCOCC2)C1 [Example 168]
19,40.8 nM,O=C(c1cnc(NC2(c3cncnc3)CC2)nc1)N1CC2(CC(O)C2)C1 [Example 102]
20,220 nM,CC1(CO)CCN(C(=O)c2cnc(NCc3cccnc3)nc2)CC1 [Example 15]
21,26.3 nM,Cc1cnc(CNc2ncc(C(=O)N3CC4(CCOCC4)C3)cn2)cn1 [Example 165]
22,116 nM,C[C@@H]1CN(C(=O)c2cnc(NC3(c4cncnc4)CC3)nc2)[C@H](C)CO1 [Example 58]
23,4620 nM,O=C(c1cnc(NCc2cnccn2)nc1)N1CC[C@@H](N2CCOCC2)C1 [Example 124]
24,20.2 nM,"O=C(c1cnc(NC2(c3cncnc3)CC2)nc1)N1CCC(C(F)(F)F)C1 (single isomer, unassigned) [Example 194]"
25,1180 nM,"CS(=O)(=O)C1CCCN(C(=O)c2cnc(NC3(c4cncnc4)CC3)nc2)C1 (single isomer, unassigned) [Example 199]"

row,IC50,Compound
1,10.7 nM,N#CC1CCCN(C(=O)c2cnc(NC3(c4cncnc4)CC3)nc2)C1 (stereo not shown) [Example 195]
2,5.41 nM,COCC1CCCN(C(=O)c2cnc(NC3(c4cncnc4)CC3)nc2)C1 (stereo not shown) [Example 71]
3,453 nM,O=C(c1cnc(NCc2cccnc2)nc1)N1CCOCC(O)C1 (stereo not shown) [Example 20]
4,3590 nM,O=C(c1cnc(NCc2cnccn2)nc1)N1CCN2C[C@H](O)C[C@H]2C1 [Example 111]
5,611 nM,CN1CC2(CCN(C(=O)c3cnc(NC4(c5cncnc5)CC4)nc3)CC2)OC1=O [Example 57]
6,84.1 nM,C[C@H](Nc1ncc(C(=O)N2CC[C@@H](N3CCOCC3)C2)cn1)c1cnccn1 [Example 120]
7,147 nM,O=C(c1cnc(NC2(c3cncnc3)CC2)nc1)N1CCCC[C@@H]1CO [Example 82]
8,24.9 nM,O=C(c1cnc(NC2(c3cncnc3)CC2)nc1)N1CCC2(CCCO2)CC1 [Example 56]
9,2.18 nM,O=C(c1cnc(NC2(c3ncccn3)CC2)nc1)N1CCC2(CCOCC2)C1 [Example 178]
10,3.62 nM,O=C(c1cnc(NC2(c3cncnc3)CC2)nc1)N1CCCC(C(F)(F)F)C1 (stereo not shown) [Example 74]
11,100 nM,O=C(c1cnc(NC2(c3cncnc3)CC2)nc1)N1CC2C(C1)C2C(F)(F)F (stereo not shown) [Example 64]
12,2270 nM,C[C@@H]1CN(C(=O)c2cnc(NC3(c4cncnc4)CC3)nc2)C[C@H](C)C1O (stereo partly shown) [Example 44]
13,1.57 nM,CC1(C)CCN(C(=O)c2cnc(NC3(c4cncnc4)CC3)nc2)C1 [Example 191]
14,1080 nM,CN1CC2(COCCN(C(=O)c3cnc(NC4(c5cncnc5)CC4)nc3)C2)OC1=O (stereo not shown) [Example 75]
15,1850 nM,O=C(c1cnc(NC2(c3cncnc3)CC2)nc1)N1CCCC[C@H]1CO [Example 45]
16,5.66 nM,O=C(c1cnc(NC2(c3cncnc3)CC2)nc1)N1CCC(F)(F)CC1 [Example 98]
17,48.1 nM,CC1(O)CCN(C(=O)c2cnc(NCc3cccnc3)nc2)CC1 [Example 9]
18,1000 nM,CCC1COC(=O)N1C1CCN(C(=O)c2cnc(NC3(c4cncnc4)CC3)nc2)CC1 (stereo not shown) [Example 36]
19,7.33 nM,Cc1ncc(CNc2ncc(C(=O)N3CC4(CCOCC4)C3)cn2)cn1 [Example 171]
20,11400 nM,CN1CC2CN(C(=O)c3cnc(NCc4cnccn4)nc3)CC2C1 (stereo not shown) [Example 123]
21,5160 nM,"O=C(Nc1ncc(C(=O)N2CCC3(CCOCC3)C2)cn1)c1cnccn1 [Example 204, N-[5-(8-oxa-2-azaspiro[4.5]dec-2-ylcarbonyl)pyrimidin-2-yl]pyrazine-2-carboxamide]"
22,20.4 nM,O=C(c1cnc(NC2(c3cncnc3)CC2)nc1)N1CCC(O)C(C(F)(F)F)C1 (stereo not shown) [Example 94]
23,101 nM,NC(=O)C1CCCN(C(=O)c2cnc(NCc3cccnc3)nc2)C1 (stereo not shown) [Example 13]
24,17.9 nM,C[C@H]1CN(C(=O)c2cnc(NCc3cccnc3)nc2)C[C@@H]1CO [Example 6]

row,Compound,IC50
1,CN1C[C@@H]2C[C@H]1CN2C(=O)c1cnc(NCc2cnccn2)nc1 [Example 112],> 18900 nM
2,Cc1ccc(C(C)Nc2ncc(C(=O)N3CC4(CCOCC4)C3)cn2)cn1 (stereo not shown) [Example 163],1.77 nM
3,Cc1ccc([C@@H](C)Nc2ncc(C(=O)N3CCC4(CCOCC4)C3)cn2)cn1 [Example 141],87.3 nM
4,O=C(c1cnc(NC2(c3cncnc3)CC2)nc1)N1C2CCC1COC2 [Example 97],345 nM
5,O=C(c1cnc(NCc2cccnc2)nc1)N1[C@@H]2CC[C@H]1C[C@@H](O)C2 [Example 28],1550 nM
